Patent US12545639B2, “3-substituted phenylamidine compounds, preparation and use thereof” (PI INDUSTRIES LTD., priority 2019, dated 2026)

Columns and labels:
Botrytis cinerea = Botrytis cinerea (gray mold) in vitro test, radial growth on potato dextrose agar; format: cell-based; conditions: 168 h, 300 ppm in potato dextrose agar, 22° C., 90% relative humidity, seven days, read-out: control compared to the untreated check (radial growth)
Phakopsora pachyrhizi = Phakopsora pachyrhizi test in soybean, preventive, in vivo on plants; conditions: in Glycine max, read-out: Efficacy (% control), disease severity compared to the untreated check
Rhizoctonia solani = Rhizoctonia solani (rice sheath blight/potato black scurf) in vitro test, radial growth on potato dextrose agar; format: cell-based; conditions: 168 h, 300 ppm in potato dextrose agar, 25° C., 60% relative humidity, seven days, read-out: control compared to the untreated check (radial growth)
Pyricularia oryzae = test: microbe, parasite or virus in culture; format: cell-based; conditions: 168 h, read-out: control compared to the untreated check (radial growth)
Alternaria solani = Alternaria solani (early blight of tomato/potato) in vitro test, radial growth on potato dextrose agar; format: cell-based; conditions: 168 h, 300 ppm in potato dextrose agar, 25° C., 60% relative humidity, seven days, read-out: control compared to the untreated check (radial growth)
[1] = system: Septoria lycopersici/Corynespora cassicola (CORYCA); test: Septoria lycopersici/Corynespora cassicola (CORYCA) (leaf spot of tomato) in vitro test, radial growth on potato dextrose agar; format: cell-based; conditions: 168 h, 300 ppm in potato dextrose agar, 25° C., 70% relative humidity, seven days, read-out: control compared to the untreated check (radial growth)

CCN(C)C=Nc1cc(F)cc(Cc2ccc(C#N)cc2)c1C [Compound 202, N′-(3-(4-cyanobenzyl)-5-fluoro-2-methylphenyl)-N-ethyl-N-methylformimidamide]
≥ 70%: inhibition of growth at 300 ppm (Botrytis cinerea) | pest or weed control at 500 ppm (Phakopsora pachyrhizi) | inhibition of growth at 300 ppm (Rhizoctonia solani) | inhibition of growth at 300 ppm (Pyricularia oryzae) | inhibition of growth at 300 ppm (Alternaria solani)

CCN(C)C=Nc1cc(F)cc(N(C)c2cccc(F)c2)c1C [Compound 32, N-ethyl-N′-(5-fluoro-3-((3-fluorophenyl)(methyl)amino)-2-methylphenyl)-N-methylformimidamide]
≥ 70%: inhibition of growth at 300 ppm (Botrytis cinerea) | pest or weed control at 500 ppm (Phakopsora pachyrhizi) | inhibition of growth at 300 ppm (Pyricularia oryzae) | inhibition of growth at 300 ppm (Alternaria solani)

CCN(C)C=Nc1cc(Cl)cc(Nc2ccccc2C)c1C [Compound 185, N′-(5-chloro-2-methyl-3-(o-tolylamino)phenyl)-N-ethyl-N-methylformimidamide]
≥ 70%: inhibition of growth at 300 ppm (Botrytis cinerea) | pest or weed control at 500 ppm (Phakopsora pachyrhizi) | inhibition of growth at 300 ppm (Rhizoctonia solani) | inhibition of growth at 300 ppm (Pyricularia oryzae) | inhibition of growth at 300 ppm (Alternaria solani)

CCN(C)C=Nc1cc(F)cc(Cc2ccc(OC(F)(F)F)cc2)c1C [Compound 176, N-ethyl-N′-(5-fluoro-2-methyl-3-(4-(trifluoromethoxy)benzyl)phenyl)-N-methylformimidamide]
≥ 70%: inhibition of growth at 300 ppm (Botrytis cinerea) | inhibition of growth at 300 ppm (Rhizoctonia solani) | inhibition of growth at 300 ppm (Pyricularia oryzae) | inhibition of growth at 300 ppm (Alternaria solani)

CCN(C)C=Nc1cc(F)cc(N(C)c2ccc(F)c(F)c2)c1C [Compound 83, N′-(3-((3,4-difluorophenyl)(methyl)amino)-5-fluoro-2-methylphenyl)-N-ethyl-N-methylformimidamide]
≥ 70%: inhibition of growth at 300 ppm (Botrytis cinerea) | inhibition of growth at 300 ppm (Rhizoctonia solani) | inhibition of growth at 300 ppm (Pyricularia oryzae) | inhibition of growth at 300 ppm (Alternaria solani)

CCN(C)C=Nc1cc(F)cc(Cc2ccc(Br)c(C)c2)c1C [Compound 232, N′-(3-(4-bromo-3-methylbenzyl)-5-fluoro-2-methylphenyl)-N-ethyl-N-methylformimidamide]
≥ 70%: inhibition of growth at 300 ppm (Botrytis cinerea) | pest or weed control at 500 ppm (Phakopsora pachyrhizi) | inhibition of growth at 300 ppm (Rhizoctonia solani) | inhibition of growth at 300 ppm (Pyricularia oryzae) | inhibition of growth at 300 ppm (Alternaria solani)

CCN(C)C=Nc1cc(Cl)cc(N(C)c2cccc(F)c2)c1C [Compound 179, N′-(5-chloro-3-((3-fluorophenyl)(methyl)amino)-2-methylphenyl)-N-ethyl-N-methylformimidamide]
≥ 70%: inhibition of growth at 300 ppm (Botrytis cinerea) | pest or weed control at 500 ppm (Phakopsora pachyrhizi) | inhibition of growth at 300 ppm (Pyricularia oryzae) | inhibition of growth at 300 ppm (Alternaria solani)

CCN(C)C=Nc1cc(C)cc(Nc2ccccc2F)c1C [Compound 6, N-ethyl-N′-(3-((2-fluorophenyl)amino)-2,5-dimethylphenyl)-N-methylformimidamide]
≥ 70%: inhibition of growth at 300 ppm (Rhizoctonia solani) | inhibition of growth at 300 ppm [1] | inhibition of growth at 300 ppm (Pyricularia oryzae) | inhibition of growth at 300 ppm (Alternaria solani)

CCN(C)C=Nc1cc(F)cc(Cc2cc(F)ccc2Cl)c1C [Compound 229, N′-(3-(2-chloro-5-fluorobenzyl)-5-fluoro-2-methylphenyl)-N-ethyl-N-methylformimidamide]
≥ 70%: inhibition of growth at 300 ppm (Botrytis cinerea) | pest or weed control at 500 ppm (Phakopsora pachyrhizi) | inhibition of growth at 300 ppm (Rhizoctonia solani) | inhibition of growth at 300 ppm (Pyricularia oryzae) | inhibition of growth at 300 ppm (Alternaria solani)

CCN(C)C=Nc1cc(OC)cc(Nc2cccc(C(F)(F)F)n2)c1C [Compound 272, N-ethyl-N′-(5-methoxy-2-methyl-3-((6-(trifluoromethyl)pyridin-2-yl)amino)phenyl)-N-methylformimidamide]
≥ 70%: inhibition of growth at 300 ppm [1] | inhibition of growth at 300 ppm (Pyricularia oryzae) | inhibition of growth at 300 ppm (Alternaria solani)

CCN(C)C=Nc1cc(F)cc(N(C)c2cccc(Cl)c2)c1C [Compound 33, N′-(3-((3-chlorophenyl)(methyl)amino)-5-fluoro-2-methylphenyl)-N-ethyl-N-methylformimidamide]
≥ 70%: inhibition of growth at 300 ppm (Botrytis cinerea) | pest or weed control at 500 ppm (Phakopsora pachyrhizi) | inhibition of growth at 300 ppm (Pyricularia oryzae) | inhibition of growth at 300 ppm (Alternaria solani)

CCN(C)C=Nc1cc(C)cc(N(C)c2c(C)cccc2F)c1Cl [Compound 138, N′-(2-chloro-3-((2-fluoro-6-methylphenyl)(methyl)amino)-5-methylphenyl)-N-ethyl-N-methylformimidamide]
≥ 70%: inhibition of growth at 300 ppm (Rhizoctonia solani) | inhibition of growth at 300 ppm [1] | inhibition of growth at 300 ppm (Pyricularia oryzae) | inhibition of growth at 300 ppm (Alternaria solani)

CCN(C)C=Nc1cc(F)cc(NCc2ccc(F)c(C)c2)c1C [Compound 182, N-ethyl-N′-(5-fluoro-3-((4-fluoro-3-methylbenzyl)amino)-2-methylphenyl)-N-methylformimidamide]
≥ 70%: inhibition of growth at 300 ppm (Botrytis cinerea) | pest or weed control at 500 ppm (Phakopsora pachyrhizi) | inhibition of growth at 300 ppm (Rhizoctonia solani) | inhibition of growth at 300 ppm (Pyricularia oryzae) | inhibition of growth at 300 ppm (Alternaria solani)

CCN(C)C=Nc1cc(Cl)cc(N(C)c2cccc(C)c2)c1C [Compound 160, N′-(5-chloro-2-methyl-3-(methyl(m-tolyl)amino)phenyl)-N-ethyl-N-methylformimidamide]
≥ 70%: inhibition of growth at 300 ppm (Botrytis cinerea) | pest or weed control at 500 ppm (Phakopsora pachyrhizi) | inhibition of growth at 300 ppm (Pyricularia oryzae) | inhibition of growth at 300 ppm (Alternaria solani)

CCN(C)C=Nc1cc(F)cc(N(C)c2cccc(C(F)(F)F)n2)c1C [Compound 291, N-ethyl-N′-(5-fluoro-2-methyl-3-(methyl(6-(trifluoromethyl)pyridin-2-yl)amino)phenyl)-N-methylformimidamide]
≥ 70%: inhibition of growth at 300 ppm [1] | inhibition of growth at 300 ppm (Pyricularia oryzae) | inhibition of growth at 300 ppm (Alternaria solani)

CCN(C)C=Nc1cc(F)cc(N(C)c2ccc(F)cc2F)c1C [Compound 80, N′-(3-((2,4-difluorophenyl)(methyl)amino)-5-fluoro-2-methylphenyl)-N-ethyl-N-methylformimidamide]
≥ 70%: inhibition of growth at 300 ppm (Botrytis cinerea) | pest or weed control at 500 ppm (Phakopsora pachyrhizi) | inhibition of growth at 300 ppm (Rhizoctonia solani) | inhibition of growth at 300 ppm (Pyricularia oryzae) | inhibition of growth at 300 ppm (Alternaria solani)

CCN(C)C=Nc1cc(F)cc(Cc2ccc(Br)cc2)c1C [Compound 175, N′-(3-(4-bromobenzyl)-5-fluoro-2-methylphenyl)-N-ethyl-N-methylformimidamide]
≥ 70%: inhibition of growth at 300 ppm (Botrytis cinerea) | inhibition of growth at 300 ppm (Rhizoctonia solani) | inhibition of growth at 300 ppm (Pyricularia oryzae) | inhibition of growth at 300 ppm (Alternaria solani)

CCN(C)C=Nc1cc(F)cc(Cc2ccc(F)cc2Br)c1C [Compound 230, N′-(3-(2-bromo-4-fluorobenzyl)-5-fluoro-2-methylphenyl)-N-ethyl-N-methylformimidamide]
≥ 70%: inhibition of growth at 300 ppm (Botrytis cinerea) | pest or weed control at 500 ppm (Phakopsora pachyrhizi) | inhibition of growth at 300 ppm (Rhizoctonia solani) | inhibition of growth at 300 ppm (Pyricularia oryzae) | inhibition of growth at 300 ppm (Alternaria solani)

CCN(C)C=Nc1cc(C)cc(N(C)c2ccc(F)c(F)c2)c1Cl [Compound 81, N′-(2-chloro-3-((3,4-difluorophenyl)(methyl)amino)-5-methylphenyl)-N-ethyl-N-methylformimidamide]
≥ 70%: inhibition of growth at 300 ppm (Botrytis cinerea) | pest or weed control at 500 ppm (Phakopsora pachyrhizi) | inhibition of growth at 300 ppm (Alternaria solani)

CCN(C)C=Nc1cc(F)cc(Nc2cccc(C)c2F)c1C [Compound 122, N-ethyl-N′-(5-fluoro-3-((2-fluoro-3-methylphenyl)amino)-2-methylphenyl)-N-methylformimidamide]
≥ 70%: inhibition of growth at 300 ppm (Botrytis cinerea) | pest or weed control at 500 ppm (Phakopsora pachyrhizi) | inhibition of growth at 300 ppm (Pyricularia oryzae)

CCN(C)C=Nc1cc(Cl)cc(Cc2ccccc2OC(F)(F)F)c1C [Compound 247, N′-(5-chloro-2-methyl-3-(2-(trifluoromethoxy)benzyl)phenyl)-N-ethyl-N-methylformimidamide]
≥ 70%: inhibition of growth at 300 ppm (Botrytis cinerea) | inhibition of growth at 300 ppm (Rhizoctonia solani) | inhibition of growth at 300 ppm (Pyricularia oryzae) | inhibition of growth at 300 ppm (Alternaria solani)

CCN(C)C=Nc1cc(C)cc(Cc2cc(F)ccc2C)c1Cl [Compound 57, N′-(2-chloro-3-(5-fluoro-2-methylbenzyl)-5-methylphenyl)-N-ethyl-N-methylformimidamide]
≥ 70%: inhibition of growth at 300 ppm (Botrytis cinerea) | pest or weed control at 500 ppm (Phakopsora pachyrhizi) | inhibition of growth at 300 ppm (Pyricularia oryzae) | inhibition of growth at 300 ppm (Alternaria solani)

CCN(C)C=Nc1cc(F)cc(Cc2cc(F)ccc2C)c1C [Compound 231, N-ethyl-N′-(5-fluoro-3-(5-fluoro-2-methylbenzyl)-2-methylphenyl)-N-methylformimidamide]
≥ 70%: inhibition of growth at 300 ppm (Botrytis cinerea) | pest or weed control at 500 ppm (Phakopsora pachyrhizi) | inhibition of growth at 300 ppm (Rhizoctonia solani) | inhibition of growth at 300 ppm (Pyricularia oryzae) | inhibition of growth at 300 ppm (Alternaria solani)

CCN(C)C=Nc1cc(F)cc(Cc2cccc(C#N)c2)c1C [Compound 174, N′-(3-(3-cyanobenzyl)-5-fluoro-2-methylphenyl)-N-ethyl-N-methylformimidamide]
≥ 70%: inhibition of growth at 300 ppm (Botrytis cinerea) | inhibition of growth at 300 ppm (Rhizoctonia solani) | inhibition of growth at 300 ppm (Pyricularia oryzae) | inhibition of growth at 300 ppm (Alternaria solani)

CCN(C)C=Nc1cc(C)cc(Nc2cccc(OC)c2)c1Cl [Compound 42, N′-(2-chloro-3-((3-methoxyphenyl)amino)-5-methylphenyl)-N-ethyl-N-methylformimidamide]
≥ 70%: inhibition of growth at 300 ppm (Botrytis cinerea) | pest or weed control at 500 ppm (Phakopsora pachyrhizi) | inhibition of growth at 300 ppm (Rhizoctonia solani) | inhibition of growth at 300 ppm (Pyricularia oryzae) | inhibition of growth at 300 ppm (Alternaria solani)

CCN(C)C=Nc1cc(C)cc(Nc2ccc(Cl)cc2F)c1Cl [Compound 134, N′-(2-chloro-3-((4-chloro-2-fluorophenyl)amino)-5-methylphenyl)-N-ethyl-N-methylformimidamide]
≥ 70%: inhibition of growth at 300 ppm (Botrytis cinerea) | pest or weed control at 500 ppm (Phakopsora pachyrhizi) | inhibition of growth at 300 ppm (Rhizoctonia solani) | inhibition of growth at 300 ppm (Pyricularia oryzae)
